Experimental data: paper PMC10797613 (ACS Chemical Neuroscience, 2024)
Values joined by “and” are separate entries in the source; they are usually repeats but may differ in a detail not shown here. Identical values can stand only once. Like-named read-outs stand apart in the source and are kept apart here.

How the values were obtained:
5-HT1B = 5-HT1B (Homo sapiens, UniProt P28222); assay: GPCR Tango assay measuring β-arrestin recruitment; assay type: cell-based; conditions: up to 50 μM
5-HT2C receptor = target: T1, 5-HT2C receptor (Homo sapiens, UniProt P28335); assay: Gαq-mediated calcium flux assay; assay type: cell-based
T1 sequence (P28335 33-458): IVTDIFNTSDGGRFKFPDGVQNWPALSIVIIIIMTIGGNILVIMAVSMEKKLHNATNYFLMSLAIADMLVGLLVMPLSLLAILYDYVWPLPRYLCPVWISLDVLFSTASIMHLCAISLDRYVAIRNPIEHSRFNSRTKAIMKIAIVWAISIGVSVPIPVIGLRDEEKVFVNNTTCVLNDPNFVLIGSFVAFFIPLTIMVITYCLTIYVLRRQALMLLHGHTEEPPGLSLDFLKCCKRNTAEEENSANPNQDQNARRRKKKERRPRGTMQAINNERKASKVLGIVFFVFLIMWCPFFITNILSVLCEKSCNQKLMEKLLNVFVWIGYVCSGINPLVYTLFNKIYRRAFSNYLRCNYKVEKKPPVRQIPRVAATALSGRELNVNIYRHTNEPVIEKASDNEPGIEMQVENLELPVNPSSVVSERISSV

C57BL/6J mice [1] = assay: mouse head twitch response; assay type: in vivo; conditions: for HTR activity (in words): mouse, in vivo; for time of peak HTR effects / ED50(mg/kg s.c.) for HTR / Emax(HTR events/30 min): mice; for time of peak HTR effects: post drug administration; for ED50(mg/kg s.c.) for HTR: 30 min session, ascending phase of HTR curve; for ED50(mg/kg s.c.) for HTR / Emax(HTR events/30 min): s.c.; for Emax(HTR events/30 min): maximum effect
C57BL/6J mice [2] = assay: locomotor activity; assay type: in vivo, mouse; conditions: s.c., 30 min testing session
C57BL/6J mice [3] = conditions: cited from earlier work
H1 = H1 (Homo sapiens, UniProt P35367); assay: biochemical; assay type: binding
5-HT2B receptor = 5-HT2B receptor (Homo sapiens, UniProt P41595); assay: Gαq-mediated calcium flux assay; assay type: cell-based; conditions: 95% CI in brackets; * = potentially ambiguous
5-HT7A = 5-HT7A (Homo sapiens, UniProt P34969); assay: GPCR Tango assay measuring β-arrestin recruitment; assay type: cell-based; conditions: EC50 5-HT7A Tango, 95% CI in brackets; * = ambiguous
5-HT2A receptor = 5-HT2A receptor (Homo sapiens, UniProt P28223); assay: Gαq-mediated calcium flux assay; assay type: cell-based; conditions: read-out: Emax (% 5-HT) 5-HT2A calcium flux, 95% CI in brackets
C57BL/6J mice [4] = assay: body temperature change from pre to post session in mice; assay type: in vivo, mouse; conditions: highest dose tested
[5] = s.c., identical testing conditions

5-HT2B receptor, sequence (P41595 whole entry): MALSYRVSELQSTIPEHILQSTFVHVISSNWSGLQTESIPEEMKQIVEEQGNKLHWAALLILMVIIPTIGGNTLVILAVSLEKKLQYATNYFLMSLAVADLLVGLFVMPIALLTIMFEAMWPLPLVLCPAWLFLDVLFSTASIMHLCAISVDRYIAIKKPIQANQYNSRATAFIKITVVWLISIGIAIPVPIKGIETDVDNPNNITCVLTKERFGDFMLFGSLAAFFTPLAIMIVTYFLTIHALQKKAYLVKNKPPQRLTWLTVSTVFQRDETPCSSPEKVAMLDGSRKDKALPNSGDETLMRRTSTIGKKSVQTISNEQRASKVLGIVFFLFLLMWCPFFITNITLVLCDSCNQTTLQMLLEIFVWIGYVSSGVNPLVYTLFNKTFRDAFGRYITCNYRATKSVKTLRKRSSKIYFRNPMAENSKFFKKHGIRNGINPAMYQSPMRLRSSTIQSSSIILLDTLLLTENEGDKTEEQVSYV
5-HT1B, sequence (P28222 whole entry): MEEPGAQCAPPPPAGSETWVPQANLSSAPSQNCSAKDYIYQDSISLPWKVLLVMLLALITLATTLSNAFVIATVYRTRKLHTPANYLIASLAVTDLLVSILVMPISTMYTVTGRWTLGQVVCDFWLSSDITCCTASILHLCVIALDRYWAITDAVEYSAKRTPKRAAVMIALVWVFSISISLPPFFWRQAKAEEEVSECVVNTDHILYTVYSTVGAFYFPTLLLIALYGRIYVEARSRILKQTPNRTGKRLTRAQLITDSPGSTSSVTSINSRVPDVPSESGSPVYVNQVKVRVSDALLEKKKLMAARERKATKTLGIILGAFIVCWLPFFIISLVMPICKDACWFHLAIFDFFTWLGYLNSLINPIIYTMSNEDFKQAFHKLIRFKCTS
5-HT2A receptor, sequence (P28223 whole entry): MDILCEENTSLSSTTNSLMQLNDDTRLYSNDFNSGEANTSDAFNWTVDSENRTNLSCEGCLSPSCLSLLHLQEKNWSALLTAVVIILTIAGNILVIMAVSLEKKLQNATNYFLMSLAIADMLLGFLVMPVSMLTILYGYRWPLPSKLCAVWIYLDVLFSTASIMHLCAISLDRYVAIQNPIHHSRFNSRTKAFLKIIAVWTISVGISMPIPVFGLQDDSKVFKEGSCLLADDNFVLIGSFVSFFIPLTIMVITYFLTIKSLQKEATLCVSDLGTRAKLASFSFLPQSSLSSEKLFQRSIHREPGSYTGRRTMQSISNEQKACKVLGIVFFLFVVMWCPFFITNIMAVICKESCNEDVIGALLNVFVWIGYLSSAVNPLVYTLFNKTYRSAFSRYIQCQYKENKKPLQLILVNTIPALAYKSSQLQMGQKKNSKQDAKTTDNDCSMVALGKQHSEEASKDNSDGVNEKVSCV
H1, sequence (P35367 whole entry): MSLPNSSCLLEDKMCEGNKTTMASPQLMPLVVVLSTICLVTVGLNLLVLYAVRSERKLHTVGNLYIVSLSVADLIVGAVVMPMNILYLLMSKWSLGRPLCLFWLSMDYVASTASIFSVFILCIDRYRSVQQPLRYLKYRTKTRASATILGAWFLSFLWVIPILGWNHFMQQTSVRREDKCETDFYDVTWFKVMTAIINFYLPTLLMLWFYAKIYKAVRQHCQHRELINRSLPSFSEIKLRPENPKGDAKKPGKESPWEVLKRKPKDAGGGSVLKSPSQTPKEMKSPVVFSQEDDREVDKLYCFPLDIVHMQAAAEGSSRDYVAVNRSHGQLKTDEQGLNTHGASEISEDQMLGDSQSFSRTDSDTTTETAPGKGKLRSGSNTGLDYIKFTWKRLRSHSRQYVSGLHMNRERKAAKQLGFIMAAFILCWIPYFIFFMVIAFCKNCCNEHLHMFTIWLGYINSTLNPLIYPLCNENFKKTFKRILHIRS
5-HT7A, sequence (P34969 1-445 isoform P34969-2): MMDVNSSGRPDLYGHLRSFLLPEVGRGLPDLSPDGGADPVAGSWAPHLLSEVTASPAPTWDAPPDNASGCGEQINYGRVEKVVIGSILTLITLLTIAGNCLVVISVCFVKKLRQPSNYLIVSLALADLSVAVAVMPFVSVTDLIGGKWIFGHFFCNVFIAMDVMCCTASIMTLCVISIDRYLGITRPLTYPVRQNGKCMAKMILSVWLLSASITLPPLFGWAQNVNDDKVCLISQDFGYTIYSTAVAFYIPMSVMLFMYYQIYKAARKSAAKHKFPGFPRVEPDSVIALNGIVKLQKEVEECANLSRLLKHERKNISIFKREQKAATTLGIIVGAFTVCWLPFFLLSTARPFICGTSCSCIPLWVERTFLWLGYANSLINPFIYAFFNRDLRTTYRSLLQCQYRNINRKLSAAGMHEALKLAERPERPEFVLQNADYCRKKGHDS

Structure (SMILES): O=C(O)/C=C/C(=O)O.Oc1cccc2[nH]cc(CCNC3CCCCC3)c12 [4-HO-NcHT, 3-(2-(Cyclohexylamino)ethyl)-1H-indol-4-ol Fumarate]
- 5-HT1B agonist activity Tango (in words) (5-HT1B): inactive
- 5-HT2C functional activity (in words) (5-HT2C receptor): inactive
- HTR activity (in words) (C57BL/6J mice [1]): inactive

Structure (SMILES): CCCNCCc1c[nH]c2cccc(O)c12.CCCNCCc1c[nH]c2cccc(O)c12.O=C(O)/C=C/C(=O)O [4-HO-NPT, 3-(2-(Propylamino)ethyl)-1H-indol-4-ol Hemifumarate]
- effect on locomotor activity (in words) (C57BL/6J mice [2]): reduced the total locomotor activity
- time of peak HTR effects (C57BL/6J mice [1]): 5 to 15 min
- ED50(mg/kg s.c.) for HTR (C57BL/6J mice [1]): 2.9 mg/kg
- Emax(HTR events/30 min) (C57BL/6J mice [1]): 52 HTR events/30 min and 52.1 HTR events/30 min

Structure (SMILES): CNCCc1c[nH]c2cccc(O)c12 [norpsilocin, 4-hydroxy-N-methyltryptamine]
- ED50(mg/kg s.c.) for HTR (C57BL/6J mice [3]; [5]): >30 mg/kg
- HTR activity (in words) (C57BL/6J mice [3]; same assay setup): failed to induce psychedelic-like HTR activity

Structure (SMILES): CCNCCc1c[nH]c2cccc(O)c12.CCNCCc1c[nH]c2cccc(O)c12.O=C(O)CCC(=O)O [4-HO-NET, 3-(2-(Ethylamino)ethyl)-1H-indol-4-ol Hemisuccinate]
- effect on locomotor activity (in words) (C57BL/6J mice [2]): reduced the total locomotor activity
- delay of maximum HTR occurrence compared to 4-HO-NALT (C57BL/6J mice [1]; at equivalent doses): 10 min
- time of peak HTR effects (C57BL/6J mice [1]): 15 to 25 min
- Emax(HTR events/30 min) (C57BL/6J mice [1]): 39.8 HTR events/30 min

Structure (SMILES): C=CCNCCc1c[nH]c2cccc(O)c12.C=CCNCCc1c[nH]c2cccc(O)c12.O=C(O)/C=C/C(=O)O [4-HO-NALT, 3-(2-(Allylamino)ethyl)-1H-indol-4-ol Hemifumarate]
- Ki (H1): 467 nM
- Emax (% 5-HT) 5-HT2B calcium flux (5-HT2B receptor): 88 % 5-HT
- time of peak HTR effects (C57BL/6J mice [1]): 5 to 15 min
- Emax(HTR events/30 min) (C57BL/6J mice [1]): 77 HTR events/30 min and 76.6 HTR events/30 min

Structure (SMILES): CCCCNCCc1c[nH]c2cccc(O)c12.O=C(O)/C=C/C(=O)O [4-HO-NnBT, 3-(2-(Butylamino)ethyl)-1H-indol-4-ol Fumarate]
- effect on locomotor activity (in words) (C57BL/6J mice [2]): reduced the total locomotor activity
- 5-HT2C functional activity (in words) (5-HT2C receptor): weak partial agonists
- EC50 (5-HT7A): 1000 nM
- HTR activity (in words) (C57BL/6J mice [1]): inactive

Structure (SMILES): CN(C)CCc1c[nH]c2cccc(O)c12 [psilocin, 4-hydroxy-N,N-dimethyltryptamine]
- reported HTR ED50 potency (C57BL/6J mice [3]): 0.11 to 0.17 mg/kg
- ED50(mg/kg s.c.) for HTR (C57BL/6J mice [3]; [5]): 0.11 mg/kg
- Emax(HTR events/30 min) (C57BL/6J mice [3]; [5]): 23 HTR events/30 min

Structure (SMILES): O=C(O)/C=C/C(=O)O.Oc1cccc2[nH]cc(CCNCc3ccccc3)c12 [4-HO-NBnT, 3-(2-(Benzylamino)ethyl)-1H-indol-4-ol Fumarate]
- Emax (5-HT2A receptor): 70%
- Emax (% 5-HT) 5-HT2B calcium flux (5-HT2B receptor): 11 % 5-HT
- effect on locomotor activity (in words) (C57BL/6J mice [2]): reduced the total locomotor activity
- decrease in HTR potency relative to psilocin (C57BL/6J mice [1]; mg/kg basis): 10 fold
- time of peak HTR effects (C57BL/6J mice [1]): 5 to 15 min
- Emax(HTR events/30 min) (C57BL/6J mice [1]): 26.1 HTR events/30 min

Structure (SMILES): CC(C)NCCc1c[nH]c2cccc(O)c12.O=C(O)/C=C/C(=O)O [4-HO-NiPT, 3-(2-(Isopropylamino)ethyl)-1H-indol-4-ol Fumarate]
- hypothermia Emax (C57BL/6J mice [4]): −1.7 °C
- 5-HT2C functional activity (in words) (5-HT2C receptor): weak partial agonists
- time of peak HTR effects (C57BL/6J mice [1]): 15 to 25 min
- ED50(mg/kg s.c.) for HTR (C57BL/6J mice [1]): 3.3 mg/kg
- Emax(HTR events/30 min) (C57BL/6J mice [1]): 27 HTR events/30 min and 27.5 HTR events/30 min

Structure (SMILES): CC(C)(C)NCCc1c[nH]c2cccc(O)c12.CC(C)(C)NCCc1c[nH]c2cccc(O)c12.O=C(O)/C=C/C(=O)O [4-HO-NtBT, 3-(2-(tert-Butylamino)ethyl)-1H-indol-4-ol Hemifumarate]
- 5-HT1B agonist activity Tango (in words) (5-HT1B): inactive
- 5-HT2C functional activity (in words) (5-HT2C receptor): inactive
- HTR activity (in words) (C57BL/6J mice [1]): inactive
